Experimental findings from patent US20040224910A1, “Recombinant nematode nicotinic receptor and uses” (priority 1999, published 2004) are described below.

Entries after “also recorded” stand apart in the source; their conditions may differ.

The target in this test is T1, heterotrimeric UNC-63, UNC-29, LEV-1 receptor (Caenorhabditis elegans, UniProt P48181+Q27218+Q9N587).
T1 construct: used to generate a full length cDNA clone by 3′ RACE on Marathon cDNA; expressed in transfected cells; host or cells: Xenopus laevis oocytes (nuclear injection of pMT3 cDNA constructs)
Briefly: Two-electrode voltage-clamp of recombinant nAChR expressed in Xenopus laevis oocytes. Particulars: for agonist activity on the expressed receptor: holding potential -100 mV. The format is cell-based, C. elegans. How it is done: Ovaries were surgically removed from anaesthetised mature female Xenopus laevis. The follicle layers were manually removed from healthy stage V and VI oocytes following a 15 min incubation with collagenase (type IA, 2 mg ml^−1) in a calcium-free version of standard oocyte saline. The composition of SOS was as follows (mM): NaCl 100, KCl 2, CaCl2 1.8, MgCl2 1 and HEPES 5; pH 7.6. In calcium-free saline, the CaCl2 was replaced by 1.8 mM BaCl2. […] The nucleus of each oocyte was injected with 20 nl of DNA (0.1 μg μl^−1). The injected oocytes were transferred to incubation medium composed of SOS supplemented with penicillin (100 units ml^−1), streptomycin (100 μg ml^−1), gentamycin (50 μg ml^−1) and 2.5 mM sodium pyruvate and placed at 4° C. for 30 min immediately after injection to enable recovery. Oocytes were maintained at 16° C. for 2-4 days prior to electrophysiological studies.
Oocytes were restrained with entomological pins in a Perspex chamber (80 μl volume) with a Sylgard base and perfused continuously (5 ml min^−1) with SOS using a gravity-fed system. Membrane currents were measured by the two-electrode voltage-clamp method, using 3M KCl filled electrodes (resistance=0.5-5 MΩ) and either a Geneclamp amplifier (Axon Instruments). The oocyte membrane potential was clamped at −100 mV. Signals were digitized by a TL-1 interface (Axon Instruments, U.S.A).

T1 sequence (P48181 27-493): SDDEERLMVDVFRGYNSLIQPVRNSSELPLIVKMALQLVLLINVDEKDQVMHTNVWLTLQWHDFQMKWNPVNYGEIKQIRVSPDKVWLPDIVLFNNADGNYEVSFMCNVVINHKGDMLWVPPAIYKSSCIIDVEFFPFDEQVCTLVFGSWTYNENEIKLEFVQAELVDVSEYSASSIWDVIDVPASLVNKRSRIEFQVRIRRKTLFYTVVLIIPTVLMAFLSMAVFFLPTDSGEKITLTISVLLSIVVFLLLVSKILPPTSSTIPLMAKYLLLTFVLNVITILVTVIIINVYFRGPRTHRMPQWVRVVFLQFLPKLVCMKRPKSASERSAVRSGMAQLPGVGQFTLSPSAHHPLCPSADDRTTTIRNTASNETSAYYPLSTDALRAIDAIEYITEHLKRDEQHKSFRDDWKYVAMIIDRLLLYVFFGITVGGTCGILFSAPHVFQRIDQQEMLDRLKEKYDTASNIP
T1 sequence (Q27218 32-507): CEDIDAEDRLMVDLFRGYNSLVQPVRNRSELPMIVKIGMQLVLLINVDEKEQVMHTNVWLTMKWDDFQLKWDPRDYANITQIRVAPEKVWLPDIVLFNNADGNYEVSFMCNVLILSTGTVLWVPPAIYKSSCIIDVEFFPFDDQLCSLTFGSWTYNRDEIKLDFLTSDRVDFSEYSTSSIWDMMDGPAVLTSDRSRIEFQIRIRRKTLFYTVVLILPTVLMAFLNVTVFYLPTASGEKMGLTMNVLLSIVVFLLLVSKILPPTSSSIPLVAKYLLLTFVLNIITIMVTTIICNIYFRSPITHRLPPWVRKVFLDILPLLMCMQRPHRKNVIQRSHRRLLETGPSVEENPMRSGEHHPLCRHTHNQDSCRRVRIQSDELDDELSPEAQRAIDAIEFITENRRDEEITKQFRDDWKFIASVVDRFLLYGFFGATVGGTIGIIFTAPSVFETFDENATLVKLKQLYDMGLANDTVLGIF
T1 sequence (Q9N587 24-502): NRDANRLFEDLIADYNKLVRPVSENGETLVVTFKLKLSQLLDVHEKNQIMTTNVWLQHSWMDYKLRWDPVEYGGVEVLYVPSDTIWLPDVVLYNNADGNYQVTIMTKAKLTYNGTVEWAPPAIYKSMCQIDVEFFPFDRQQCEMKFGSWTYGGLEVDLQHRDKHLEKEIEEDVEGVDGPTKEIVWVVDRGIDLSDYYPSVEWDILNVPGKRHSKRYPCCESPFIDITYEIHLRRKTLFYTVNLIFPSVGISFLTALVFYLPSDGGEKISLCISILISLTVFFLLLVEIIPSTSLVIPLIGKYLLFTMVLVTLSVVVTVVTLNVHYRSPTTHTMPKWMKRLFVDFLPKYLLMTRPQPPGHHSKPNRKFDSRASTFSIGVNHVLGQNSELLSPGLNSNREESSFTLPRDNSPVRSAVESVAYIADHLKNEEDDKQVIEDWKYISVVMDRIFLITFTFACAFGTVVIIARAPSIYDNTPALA

Turning to `c1ccc([C@H]2CN3CCSC3=N2)cc1` [levamisole], the “agonist activity on the expressed receptor” value (“agonist activity” below) (Xenopus oocytes) is listed as “partial agonists; also recorded: partial agonist activity”.

For `CN1CCCC1c1cccnc1` (centres unmarked) [nicotine], the “agonist activity” value (Xenopus oocytes) is “partial agonists; also recorded: partial agonist activity”.

Consider `CC(=O)OCC[N+](C)(C)C.[Cl-]` [ACh, Acetylcholine chloride], for which, for the setting “Xenopus oocytes”, the “agonist activity” value is recorded as “full agonist”.

`CNC1(C)C2CCC(C2)C1(C)C` (centres unmarked) [Mecamylamine, mecamylamine]: the “block of the agonist action of levamisole” value (10 μM mecamylamine, Xenopus oocytes (FIG. 6)) is on record as “blocked”. Further, the “antagonism of ACh-induced currents” value (10 μM, Xenopus oocytes) was “effective antagonist”.
